In article PMC8286840, “Identifying SARS-CoV-2 antiviral compounds by screening for small molecule inhibitors of Nsp3 papain-like protease” (Biochemical Journal, 2021) one finds remaining activity data, which are given here for 31 molecules.

Test [1] concerns the target T1, SARS-CoV-2 PLpro (nsp3 1564–1878) (Severe acute respiratory syndrome coronavirus 2, UniProt P0DTD1). Description: biochemical. Also on record: FRET-quenched peptide (Pro3) cleavage by PLpro, 10 min pre-incubation, slope over 20 min, normalised to no-compound control. Conditions: high concentration screen.
For test [2], the target named is T1, SARS-CoV-2 PLpro (nsp3 1564–1878). Briefly: biochemical. Also noted: FRET-quenched peptide (Pro3) cleavage by PLpro, 10 min pre-incubation, slope over 20 min, normalised to no-compound control. Conditions: low concentration screen.
Where [3] appears, read: Well no.=7499, read-out: % of control remaining.
The mark [4] stands for this setting: Well no.=1405, read-out: % of control remaining.
The mark [5] stands for this setting: Well no.=1278, read-out: % of control remaining.
Where [6] appears, read: Well no.=1520, read-out: % of control remaining.
Where [7] appears, read: Well no.=6020, read-out: % of control remaining.
The mark [8] stands for this setting: Well no.=856, read-out: % of control remaining.
Where [9] appears, read: Well no.=5964, read-out: % of control remaining.
Setting [10] is: Well no.=199, read-out: % of control remaining.
The mark [11] stands for this setting: Well no.=488, read-out: % of control remaining.
[12] abbreviates: Well no.=910, read-out: % of control remaining.
Where [13] appears, read: Well no.=3420, read-out: % of control remaining.
[14] abbreviates: Well no.=7261, read-out: % of control remaining.
[15] abbreviates: Well no.=6018, read-out: % of control remaining.
[16] abbreviates: Well no.=5634, read-out: % of control remaining.
Setting [17] is: Well no.=5969, read-out: % of control remaining.
Where [18] appears, read: Well no.=5556, read-out: % of control remaining.
The mark [19] stands for this setting: Well no.=5526, read-out: % of control remaining.
[20] abbreviates: Well no.=6014, read-out: % of control remaining.
The mark [21] stands for this setting: Well no.=6149, read-out: % of control remaining.
[22] abbreviates: Well no.=295, read-out: % of control remaining.
Setting [23] is: Well no.=309, read-out: % of control remaining.
The mark [24] stands for this setting: Well no.=6203, read-out: % of control remaining.
Setting [25] is: Well no.=5181, read-out: % of control remaining.
[26] abbreviates: Well no.=6349, read-out: % of control remaining.
The mark [27] stands for this setting: read-out: % of control remaining, Well no.=149.
[28] abbreviates: Well no.=2119, read-out: % of control remaining.
Where [29] appears, read: Well no.=305, read-out: % of control remaining.
[30] abbreviates: Well no.=154, read-out: % of control remaining.
[31] abbreviates: Well no.=2397, read-out: % of control remaining.
Setting [32] is: Well no.=594, read-out: % of control remaining.
The mark [33] stands for this setting: Well no.=6679, read-out: % of control remaining.
Where [34] appears, read: Well no.=7687, read-out: % of control remaining.

Counter-ions that a name gives are not always drawn. Like-named read-outs stand apart in the source and are kept apart here.

In the case of `O=C(O)CC(=O)CC(=O)O` [3-Oxopentanedioic acid], the remaining activity at 3.75 µM in test [1] (setting [3]) stood at 99.7%. For the same molecule, the remaining activity at 1.25 µM in test [2] (setting [3]) is 97.9%.

`NCC#Cc1ccccc1` [3-Phenylpropargylamine hydrochloride]: the remaining activity at 3.75 µM in test [1] (setting [4]) was 101%. Besides, in test [2] (setting [4]), the remaining activity at 1.25 µM came out at 103%.

In the case of `CN1[C@@H]2CC[C@H]1C[C@@H](OC(=O)c1cc(Cl)cc(Cl)c1)C2` [3-Tropanyl-3,5-dichlorobenzoate], in test [1] (setting [5]), the remaining activity at 3.75 µM stood at 108%. Moreover, the remaining activity at 1.25 µM in test [2] (setting [5]) worked out at 110%.

On to `C[N+]1(C)C2CCC1CC(OC(=O)c1c[nH]c3ccccc13)C2` (stereo not shown) [3-Tropanylindole-3-carboxylate methiodide], for which the remaining activity at 3.75 µM in test [1] (setting [6]) is 90.6%. Moreover, the remaining activity at 1.25 µM in test [2] (setting [6]) turned out to be 91.9%.

In the case of `CCOC(OCC)P(=O)(O)CCCNCc1ccc(Cl)c(Cl)c1` [3-[(3,4-dichlorobenzyl)amino]propyl(diethoxymethyl)phosphinic acid], in test [1] (setting [7]), the remaining activity at 3.75 µM turned out to be 93.6%. Besides, the remaining activity at 1.25 µM in test [2] (setting [7]) is 98.7%.

With `C[C@]12CC[C@@H](O)C[C@@H]1CC[C@@H]1[C@@H]2CC[C@]2(C)[C@@H](C(=O)CO)CC[C@@H]12` [3-alpha,21-Dihydroxy-5-alpha-pregnan-20-one], the remaining activity at 3.75 µM in test [1] (setting [8]) was 104%. Also, the remaining activity at 1.25 µM in test [2] (setting [8]) stood at 99.8%.

On to `NC(=S)NN=Cc1ncccc1N` [3-amino-2-pyridinecarbaldehyde thiosemicarbazone], for which the remaining activity at 3.75 µM in test [1] (setting [9]) came to 97.9%. Besides, the remaining activity at 1.25 µM in test [2] (setting [9]) is 98.3%.

With `NC(=O)c1cccc(N)c1` [3-aminobenzamide], the remaining activity at 3.75 µM in test [1] (setting [10]) is 98.8%. Moreover, the remaining activity at 1.25 µM in test [2] (setting [10]) worked out at 101%.

Turning to `Nc1nccc2c1ncn2[C@@H]1O[C@H](CO)[C@@H](O)[C@H]1O` [3-deazaadenosine], the remaining activity at 3.75 µM in test [1] (setting [11]) was found to be 95.2%. Also, the remaining activity at 1.25 µM in test [2] (setting [11]) stood at 94.5%.

`CCCn1c(=O)[nH]c(=O)c2[nH]cnc21` [3-n-Propylxanthine]: the remaining activity at 3.75 µM in test [1] (setting [12]) was determined as 104%. In addition, in test [2] (setting [12]), the remaining activity at 1.25 µM amounted to 105%.

For the molecule `Cc1cc2cc3c(C)cc(=O)oc3c(C)c2o1` [4,5',8-Trimethylpsoralen], the remaining activity at 3.75 µM in test [1] (setting [13]) was found to be 95.9%. In test [2] (setting [13]), the remaining activity at 1.25 µM came to 99.6%.

Regarding `CC(=O)CC(=O)CCC(=O)O` [4,6-Dioxoheptanoic acid], the remaining activity at 3.75 µM in test [1] (setting [14]) came to 102%. In addition, the remaining activity at 1.25 µM in test [2] (setting [14]) was 102%.

As to `O=[N+]([O-])c1ccc(Nc2nc(N3CCOCC3)nc(N3CCOCC3)n2)cc1` [4,6-di(4-morpholinyl)-N-(4-nitrophenyl)-1,3,5-triazin-2-amine], in test [1] (setting [15]), the remaining activity at 3.75 µM turned out to be 92.3%. Moreover, the remaining activity at 1.25 µM in test [2] (setting [15]) worked out at 94.4%.

Take `CC1(C)CC(=O)C2=C(C1)NC(=S)NC2c1cccc(O)c1` (stereo not shown) [4-(3-hydroxyphenyl)-7,7-dimethyl-2-thioxo-2,3,4,6,7,8-hexahydro-5(1H)-quinazolinone]: in test [1] (setting [16]), the remaining activity at 3.75 µM turned out to be 95.1%. Also, in test [2] (setting [16]), the remaining activity at 1.25 µM amounted to 94.5%.

As to `Cc1ccc(-c2n[nH]c3c2C(c2cccc(O)c2)N(c2ccc(C(=O)O)cc2)C3=O)cc1` (stereo not shown) [4-(4-(3-hydroxyphenyl)-3-(4-methylphenyl)-6-oxo-4,6-dihydropyrrolo[3,4-c]pyrazol-5(1H)-yl)benzoic acid], in test [1] (setting [17]), the remaining activity at 3.75 µM came out at 97.4%. The remaining activity at 1.25 µM in test [2] (setting [17]) worked out at 100%.

As to `CN1c2cc3c(cc2N=C(c2ccc(C(=O)O)cc2)c2ccccc21)C(C)(C)CCC3(C)C` [4-(5,7,7,10,10-pentamethyl-7,8,9,10-tetrahydro-5H-naphtho[2,3-b][1,4]benzodiazepin-13-yl)benzoic acid], in test [1] (setting [18]), the remaining activity at 3.75 µM came to 100%. Also, the remaining activity at 1.25 µM in test [2] (setting [18]) was 104%.

With `O=C(O)c1ccc(SC2=NS(=O)(=O)c3ccccc32)cc1` [4-((1,1-dioxidobenzo[d]isothiazol-3-yl)thio)benzoic acid], the remaining activity at 3.75 µM in test [1] (setting [19]) came to 102%. Further, in test [2] (setting [19]), the remaining activity at 1.25 µM was 97.8%.

For `c1ccc(C(OC2CCN(CCCc3nn[nH]n3)CC2)c2ccccc2)cc1` [4-(benzhydryloxy)-1-[3-(1H-tetraazol-5-yl)propyl]piperidine], the remaining activity at 3.75 µM in test [1] (setting [20]) came out at 93.3%. For the same molecule, the remaining activity at 1.25 µM in test [2] (setting [20]) is 95.5%.

For the molecule `CC(=O)NCCCC(=O)O` [4-Acetamidobutanoic acid], in test [1] (setting [21]), the remaining activity at 3.75 µM is 106%. The remaining activity at 1.25 µM in test [2] (setting [21]) stood at 110%.

`Nc1ccc2c3c(cccc13)C(=O)NC2=O` [4-Amino-1,8-naphthalimide]: in test [1] (setting [22]), the remaining activity at 3.75 µM was 92.9%. For the same molecule, in test [2] (setting [22]), the remaining activity at 1.25 µM came to 103%.

In the case of `N=C(N)c1ccc(N)cc1` [4-Aminobenzamidine dihydrochloride], the remaining activity at 3.75 µM in test [1] (setting [23]) came out at 92.5%. Also, in test [2] (setting [23]), the remaining activity at 1.25 µM stood at 91.8%.

On to `Nc1ccc(C(=O)O)cc1` [4-Aminobenzoic acid], for which, in test [1] (setting [24]), the remaining activity at 3.75 µM stood at 101%. Also, the remaining activity at 1.25 µM in test [2] (setting [24]) is 97.3%.

Turning to `Nc1ccc(C(=O)NCC(=O)O)cc1` [4-Aminohippuric Acid], the remaining activity at 3.75 µM in test [1] (setting [25]) was 95.3%; in test [1] (setting [26]), 103%. Moreover, the results for the remaining activity at 1.25 µM in test [2] (setting [25]) and in test [2] (setting [26]) were 95.9% and 105%, respectively.

Turning to `Nc1ccncc1` [4-Aminopyridine], the remaining activity at 3.75 µM in test [1] (setting [27]) amounted to 104%. For the same molecule, in test [2] (setting [27]), the remaining activity at 1.25 µM turned out to be 104%.

For the molecule `Nc1ccc(C(=O)O)c(O)c1` [4-Aminosalicylic acid], in test [1] (setting [28]), the remaining activity at 3.75 µM was determined as 101%. In test [2] (setting [28]), the remaining activity at 1.25 µM stood at 99.3%.

On to `C[C@]12CCC(=O)C(O)=C1CC[C@@H]1[C@@H]2CC[C@]2(C)C(=O)CC[C@@H]12` [4-Androsten-4-ol-3,17-dione], for which the remaining activity at 3.75 µM in test [1] (setting [29]) came out at 93.5%. Besides, the remaining activity at 1.25 µM in test [2] (setting [29]) amounted to 96.5%.

Turning to `C[C@]12CCC(=O)C=C1CC[C@@H]1[C@@H]2CC[C@]2(C)C(=O)CC[C@@H]12` [4-Androstene-3,17-dione], the remaining activity at 3.75 µM in test [1] (setting [30]) was 99.2%. In addition, in test [2] (setting [30]), the remaining activity at 1.25 µM was 103%.

With `Cc1ncc2ccccc2c1C#N` [4-Cyano-3-methylisoquinoline], the remaining activity at 3.75 µM in test [1] (setting [31]) stood at 95.8%. Further, the remaining activity at 1.25 µM in test [2] (setting [31]) came out at 97.4%.

Consider `O=C(OC1CCN(CCCl)CC1)C(c1ccccc1)c1ccccc1` [4-Diphenylacetoxy-N-(2-chloroethyl)piperidine hydrochloride], for which the remaining activity at 3.75 µM in test [1] (setting [32]) turned out to be 92.6%. The remaining activity at 1.25 µM in test [2] (setting [32]) came out at 92.6%.

For the molecule `CCc1ccc(O)cc1` [4-Ethylphenol], in test [1] (setting [33]), the remaining activity at 3.75 µM was found to be 104%. Moreover, the remaining activity at 1.25 µM in test [2] (setting [33]) amounted to 103%.

Take `NC(N)=NCCCC(=O)O` [4-Guanidinobutanoic acid]: in test [1] (setting [34]), the remaining activity at 3.75 µM was determined as 106%. The remaining activity at 1.25 µM in test [2] (setting [34]) came out at 108%.
